From the supplement of paper PMC8149375

Legend:
Conditions in all cases: treatment: drug alone; 5 days
[1] = test system: SN12C; experiment: GI50, drug alone; higher = less potent
Protocol: (§1)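 Primary HTS: 8 RCC cell lines treated with 8 doses (up to 10 uM) of each library drug alone for 5 days; viability read by CellTiter-Glo and normalised to DMSO. GI50 was fitted with XLfit (4-parameter), AUC is the area under the dose-response curve, and minimum viability is the lowest fraction of DMSO viability across doses.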

[2] = test system: 769-P; experiment: GI50, drug alone; higher = less potent
Protocol: as §1

[3] = test system: TK-10; experiment: GI50, drug alone; higher = less potent
Protocol: as §1

[4] = test system: ACHN; experiment: GI50, drug alone; higher = less potent
Protocol: as §1

[5] = test system: 786-O; experiment: GI50, drug alone; higher = less potent
Protocol: as §1

[6] = test system: UO-31; experiment: GI50, drug alone; higher = less potent
Protocol: as §1

[7] = test system: CAKI-1; experiment: GI50, drug alone; higher = less potent
Protocol: as §1

[8] = test system: A498; experiment: GI50, drug alone; higher = less potent
Protocol: as §1

[9] = test system: SN12C; experiment: minimum viability across doses, drug alone, relative to DMSO (fraction); higher = less growth inhibition
Protocol: as §1

[10] = test system: 769-P; experiment: as above
Protocol: as §1

[11] = test system: TK-10; experiment: as above
Protocol: as §1

[12] = test system: ACHN; experiment: as above
Protocol: as §1

[13] = test system: 786-O; experiment: as above
Protocol: as §1

[14] = test system: UO-31; experiment: as above
Protocol: as §1

[15] = test system: CAKI-1; experiment: as above
Protocol: as §1

[16] = test system: A498; experiment: as above
Protocol: as §1

[17] = test system: SN12C; experiment: AUC of dose-response viability curve, drug alone (arbitrary (AUC of normalised viability)); higher = less growth inhibition
Protocol: as §1

[18] = test system: 769-P; experiment: as above
Protocol: as §1

[19] = test system: TK-10; experiment: as above
Protocol: as §1

[20] = test system: ACHN; experiment: as above
Protocol: as §1

[21] = test system: 786-O; experiment: as above
Protocol: as §1

[22] = test system: UO-31; experiment: as above
Protocol: as §1

[23] = test system: CAKI-1; experiment: as above
Protocol: as §1

[24] = test system: A498; experiment: as above
Protocol: as §1

Row | Compound | GI50, drug alone [1] [µM] | GI50, drug alone [2] [µM] | GI50, drug alone [3] [µM] | GI50, drug alone [4] [µM] | GI50, drug alone [5] [µM] | GI50, drug alone [6] [µM] | GI50, drug alone [7] [µM] | GI50, drug alone [8] [µM] | minimum viability across doses [9] | minimum viability across doses [10] | minimum viability across doses [11] | minimum viability across doses [12] | minimum viability across doses [13] | minimum viability across doses [14] | minimum viability across doses [15] | minimum viability across doses [16] | AUC of dose-response viability curve [17] | AUC of dose-response viability curve [18] | AUC of dose-response viability curve [19] | AUC of dose-response viability curve [20] | AUC of dose-response viability curve [21] | AUC of dose-response viability curve [22] | AUC of dose-response viability curve [23] | AUC of dose-response viability curve [24]
1 | CS(=O)c1ccc(-c2nc(-c3ccc(F)cc3)c(-c3ccncc3)[nH]2)cc1 (stereo not given) | > 10 | > 10 | > 10 | 0.142 | > 10 | > 10 | > 10 | > 10 | 0.84 | 0.892 | 0.713 | 0.577 | 0.774 | 1.06 | 0.931 | 1.12 | 3.43 | 3.37 | 2.98 | 2.51 | 3.47 | 4.33 | 3.69 | 4.51
2 | CN(C)CCOc1ccc(-c2nc(-c3ccncc3)c(-c3ccc4c(c3)CC/C4=N/O)[nH]2)cc1 | > 10 | 8.71 | > 10 | 8.61 | 7.91 | > 10 | 9.32 | 8.04 | 0.706 | 0.177 | 0.575 | 0.167 | 0.0071 | 0.573 | 0.308 | 0.0435 | 3.3 | 3.44 | 3.35 | 3.51 | 2.94 | 5.65 | 3.77 | 4.26
3 | COc1cc2c(Nc3ccc(NC(=O)c4ccccc4)cc3)ncnc2cc1OCCCN1CCOCC1 | > 10 | 5.72 | 4.2 | 3.42 | 2 | 9.01 | 2.63 | > 10 | 0.537 | 0.24 | 0.243 | 0.152 | 0.00931 | 0.175 | 0.108 | 0.722 | 2.89 | 3.12 | 2.86 | 2.57 | 2.52 | 4.2 | 3.03 | 4.49
4 | C[C@@H](N)[C@H]1CC[C@H](C(=O)Nc2ccncc2)CC1.Cl.Cl | > 10 | > 10 | > 10 | > 10 | > 10 | > 10 | > 10 | > 10 | 0.909 | 0.895 | 0.887 | 0.908 | 0.802 | 0.96 | 0.859 | 0.87 | 3.55 | 3.37 | 3.46 | 3.73 | 3.36 | 4.59 | 3.45 | 3.58
5 | O=C1NC(=O)C(=Cc2ccc(-c3ccc(F)cc3)o2)S1 (stereo in doubt) | > 10 | > 10 | > 10 | > 10 | > 10 | 7.95 | > 10 | > 10 | 0.82 | 0.859 | 0.81 | 0.871 | 0.566 | 0.311 | 0.882 | 0.852 | 3.23 | 3.33 | 3.07 | 3.47 | 2.4 | 3.29 | 3.34 | 3.71
